The values that follow come from patent US7109175B1, “Specific steady-state R-type CA2+ channel blockers and use thereof” (Universite de Sherbrooke, priority 2000, dated 2006).

Entries after “also recorded” stand apart in the source; their conditions may differ.

In series [1] the test system is R-type Ca^2+ channel. In words: Ca2+ channel blockers tested on the R-type channel (data not shown). Type of series: cell-based.
Series [2] has as its system writhing response in mice. In words: Writhing response in mice (acetic acid, acetylcholine, kaolin). Type of series: in vivo. The conditions noted are these: i.p., mice; for ID50 ACETYLCHOLINE: acetylcholine-induced writhes; for ID50 KAOLIN: kaolin-induced writhes. An excerpt: The antinociceptive actions of compound MV 8612 and MV 8608 were investigated in different models of nociception in mice as reported previously (Vaz et al., 1996, J. Pharmacol. Exp. Ther. 278:304–312).

The subject of series [3] is tail-flick. The series is described as follows: Tail-flick in mice. The class given is in vivo. As to conditions: i.p.
Series [4] has as its system L-type Ca^2+ channel. The series is described as follows: Isradipine on L-type channel (data not shown). The conditions noted are these: read-out: ED50, block of L-type Ca2+ channel. The class given is cell-based.
Series [5] relates to anaesthetized rat. In words: Anaesthetized rat, blood pressure and PAF hypotension. As to conditions: rat, results not shown. Type of series: in vivo. An excerpt:
On the other hand, in vivo administered PAF, induced a marked hypotension in the anaesthetized rat and guinea pig.

Series [6] relates to vasoconstriction, hypotension and airways hypereactivity induced by PAF, ET-1 and organ transplantation. The series is described as follows: In vivo tests in rats, rabbits and guinea pigs (summary). The conditions noted are these: rabbits, guinea pigs.
Series [7] concerns plasma ET-1, attacks of Raynaud's phenomenon. As to conditions: patients, La Civita et al. 1996; cited from earlier work.
Series [8] concerns circulating ET-1, blood flow, hypertension.
The test system of series [9] is MG63 and FAOS-2. In words: Spontaneous proliferation of human osteoblast cancer lines. The conditions noted are these: 10^−8M. Type of series: cell-based.

In the case of `COc1ccc([C@@H]2Sc3cc(Cl)ccc3N(CCN(C)C)C(=O)[C@@H]2OC(C)=O)cc1` [Clentiazem], the “block of R-type Ca2+ channel” value in [1] is recorded as “none were found to block the R-type Ca^2+”.
`COc1ccc(CCN(C)CCCC(C#N)(c2cc(OC)c(OC)c(OC)c2)C(C)C)cc1OC` (stereo not shown) [D600]: the “block of R-type Ca2+ channel” value in series [1] is given as “none were found to block the R-type Ca^2+”.
For `COc1cccc(CCN(C)CCCC(C#N)(c2ccc(OC)c(OC)c2)C(C)C)c1` (stereo not shown) [D888], the “block of R-type Ca2+ channel” value in [1] was “none were found to block the R-type Ca^2+”.
Turning to `COc1ccc([C@@H]2Sc3ccccc3N(CCN(C)C)C(=O)[C@@H]2OC(C)=O)cc1` [Diltiazem], in [1], the “block of R-type Ca2+ channel” value is given as “none were found to block the R-type Ca^2+”.
`COc1ccc2c(c1)c(CC(=O)O)c(C)n2C(=O)c1ccc(Cl)cc1` [INDOMETHACIN, indomethacin, reference compound]: the “ID50 ACETIC ACID” value in [2] (acetic acid-induced writhes) was 1.2 (0.9–1.4) μmol/kg. Also, in series [2], the “ID50 ACETYLCHOLINE” value was 0.8 (0.5–1.0) μmol/kg and the “ID50 KAOLIN” value was 1.6 (1.4–1.8) μmol/kg.
For the compound `CN1CC[C@]23c4c5ccc(O)c4O[C@H]2[C@@H](O)C=C[C@H]3[C@H]1C5` [MORPHINE, morphine, reference compound], in [2], the “ID50 ACETYLCHOLINE” value was 1.4 (1.0–1.8) μmol/kg and the “ID50 KAOLIN” value is listed as 1.4 (1.2–1.7) μmol/kg. Also, the “ID50 TAIL-FLICK” value in [3] is listed as 6.0(5.7–6.4) μmol/kg.
Regarding `COc1ccc(CCN(C)CCCC(C#N)(c2ccc(OC)c(OC)c2)C(C)C)cc1OC` (stereo not shown) [Verapamil], the “block of R-type Ca2+ channel” value in series [1] is recorded as “none were found to block the R-type Ca^2+”.
In the case of `COC(=O)C1=C(C)NC(C)=C(C(=O)OC(C)C)C1c1cccc2nonc12` (stereo not shown) [isradipine], the EC50 in series [4] was roughly 1000 nM. Further, the intrinsic hypotensive effect entry in [5] was “marked intrinsic hypotensive properties”. Besides, the “side effects in vivo” value in [6] is recorded as “exhibited significant side effects”. Also, the “elevated plasma ET-1 level and frequency, severity of acute attacks of Raynaud's phenomenon” value in [7] is listed as “significantly reduced”. For the same compound, the “hypertension and ET-1 plasma elevation associated with cyclosporin A (Sandimmune) treatment” value in series [8] (allograft transplant, listed as Lomir/Dynacirc) was “blocked hypertension and ET-1 plasma elevation; also recorded: blocks the elevated circulating endothelin level”. Further, the “increase of circulating ET-1 and decrease of blood flow” value in series [8] (organ transplants, rabbit, cyclosporin-A treated) was “restored ET-1 and blood flow levels”. In addition, the spontaneous cell proliferation entry in series [9] is on record as “reduced spontaneous cell proliferation”.
Regarding `COC(=O)C1=C(C)NC(C)=C(C(=O)OC)C1c1ccccc1[N+](=O)[O-]` [nifedipine], the intrinsic hypotensive effect result in [5] was “marked intrinsic hypotensive properties”.
